According to ChEMBL document CHEMBL4825741, “Novel Histone Acetyltransferase (HAT) Inhibitors for Treating Diseases” (ACS Med Chem Lett, 2021):

Test: Inhibition of p300/CBP HAT (unknown origin) by scintillation proximity assay
Parameters: species or system Homo sapiens

Question: For `Cn1cc(COc2ccc(NC(=O)[C@@H](NCCc3ccc(Cl)cc3)c3ccccc3)nc2)cn1`, which IC50 is on record?
Answer: 16.8 nM

Question: With `CC(CN[C@H](C(=O)Nc1ccc(OC2CCN(C(=O)C3CC3)CC2)cn1)c1ccccc1)c1ccc(C#N)cc1` (stereo partly specified) as the molecule, how does the IC50 read?
Answer: 26.7 nM

Question: With `CC(=O)N1CC(Oc2ccc(NC(=O)[C@H](NCC(C)c3ccc(C#N)cc3)c3cccc(F)c3)nc2)C1` (stereo partly specified) as the molecule, how does the IC50 read?
Answer: 23.3 nM

Question: For `CN1CCC(Oc2ccc(NC(=O)[C@H](NCCc3ccc(Cl)cc3)c3ccccc3)nc2)CC1`, which IC50 is on record?
Answer: 26.6 nM

Question: With `CC(=O)N1CC(Oc2ccc(NC(=O)[C@H](NC[C@@H](C)c3ccc(C#N)cc3)c3ccccc3)nc2)C1` as the molecule, how does the IC50 read?
Answer: 21.2 nM

Question: For `CC(=O)N1CC(Oc2ccc(NC(=O)[C@@H](NC[C@@H](C)c3ccc(C#N)cc3)c3ccccc3)nc2)C1`, which IC50 is on record?
Answer: 14 nM
